Measurements as given in patent publication US20170064957A1, “ACTIVE COMPOUND COMBINATIONS HAVING IN[…]” (BAYER CROPSCIENCE AKTIENGESELLSCHAFT, priority 2014, published 2017).

Assays:
Type in all cases: in vivo
[1] = system: caterpillars of the fall army worm (Spodoptera frugiperda); test: Spodoptera frugiperda - spray test; conditions: 0.1 ppm, cotton leaves
From the text: (§1) The expected activity for a given combination of two active compounds can be calculated according to S. R. Colby, Weeds 15 (1967), 20-22 as follows: • If • X is the kill rate, expressed in % of the untreated control, when active compound A is applied at an application rate of m g/ha or at a concentration of m ppm, • Y is the kill rate, expressed in % of the untreated control, when active compound B is applied at an application rate of n g/ha or at a concentration of n ppm and • E is the kill rate, expressed in % of the untreated control, when active compounds A and B is applied at application rates of m and n g/ha or at a concentration of m and n ppm, • then
Spodoptera frugiperda—Spray Test
(§2) Solvent: 7 parts by weight of dimethylformamide Emulsifier: alkylaryl polyglycol ether
(§3) To produce a suitable preparation of active compound, 1 part by weight of active compound is mixed with the stated amount of solvent and is diluted with water, containing an emulsifier concentration of 1000 ppm, to the desired concentration. Further test concentrations are prepared by dilution with emulsifier containing water. Ammonium salt and/or penetration enhancer in a dosage of 1000 ppm are added if necessary.
Cotton leaves (Gossypium hirsutum) are treated by being sprayed with the preparation of the active compound of the desired concentration and are infested with caterpillars of the fall army worm (Spodoptera frugiperda).
After the specified period of time mortality in % is determined. 100% means all the caterpillars have been killed and 0% means none of the caterpillars have been killed. The mortality values determined thus are recalculated using the Colby-formula (see sheet 1).

[2] = system: two spotted spidermite (Tetranychus urticae); test: Tetranychus urticae - spray test OP-resistant; conditions: French bean leaf disks
From the text: as §1
Tetranvchus Urticae—Spray Test OP-Resistant
(§4) To produce a suitable preparation of active compound, 1 part by weight of active compound is mixed with the stated amount of solvents and is diluted with water, containing an emulsifier concentration of 1000 ppm, to the desired concentration. To produce a suitable preparation of a spore suspension the spores are diluted with emulsifier containing water to the desired concentration. Further test concentrations are prepared by dilution with emulsifier containing water.
French bean (Phaseolus vulgaris) leaf disks which are heavily infested with all stages of the two spotted spidermite (Tetranychus urticae), are sprayed with a preparation of the active ingredient of the desired concentration.
After the specified period of time, mortality in % is determined. 100% means all spider mites have been killed and 0% means none of the spider mites have been killed. The mortality values determined thus are recalculated using the Colby-formula (see sheet 1).

[3] = system: mustard beetle larvae (Phaedon cochleariae); test: Phaedon cochleariae - spray test; conditions: Chinese cabbage leaf disks
From the text: as §1
Phaedon cochleariae—Spray Test
as §4
Chinese cabbage (Brassica pekinensis) leaf disks are sprayed with a preparation of the active ingredient of the desired concentration. Once dry, the leaf disks are infested with mustard beetle larvae (Phaedon cochleariae).
After the specified period of time, mortality in % is determined. 100% means all beetle larvae have been killed and 0% means none of the beetle larvae have been killed. The mortality values determined thus are recalculated using the Colby-formula (see sheet 1).

[4] = system: larvae of the cotton boll worm (Heliothis armigera); test: Heliothis armigera - spray test; conditions: cotton plants
From the text: as §1
Heliothis armigera—Spray Test
as §2
as §3, with “added to the desired concentration” for “added”
Cotton plants (Gossypium hirsutum) are treated by being sprayed with the preparation of the active compound of the desired concentration and are infested with larvae of the cotton boll worm (Heliothis armigera).
After the specified period of time, the mortality in % is determined. 100% means all caterpillars have been killed; 0% means none of the caterpillars have been killed. The mortality values determined thus are recalculated using the Colby-formula (see sheet 1).

`Cc1cc(C(F)(C(F)(F)F)C(F)(F)F)ccc1NC(=O)c1cccc(I)c1C(=O)NC(C)(C)CS(C)(=O)=O` [Flubendiamide] was tested, and the “Efficacy in % after 1d” value ([1]; 1 d) was 0%, the “Efficacy in % after 2d” value ([1]; 2 d) was 0% and the “Efficacy in % after 3d” value ([1]; 3 d) was 0%. The “Efficacy in % after 2d” value ([2]; 0.8 g ai/ha) was 0%, the “Efficacy in % after 6d” value ([2]; 0.8 g ai/ha, 6 d) was 0% and the “Efficacy in % after 2d” value ([2]; 4 g ai/ha) was 0%.
For `CNC(=O)c1cc(C#N)cc(C)c1NC(=O)c1cc(Cn2nnc(C(F)(F)F)n2)nn1-c1ncccc1Cl` [(II-2), 1-(3-chloropyridin-2-yl)-N-[4-cyano-2-methyl-6-(methylcarbamoyl)phenyl]-3-{[5-(trifluoromethyl)-2H-tetrazol-2-yl]methyl}-1H-pyrazole-5-carboxamide], the “Efficacy in % after 6d” value ([3]; 0.0064 g ai/ha) was 0% and the “Efficacy in % after 6d” value ([3]; 0.032 g ai/ha) was 33%.
For `CNC(=O)c1cc(Cl)cc(C)c1NC(=O)c1cc(Br)nn1-c1ncccc1Cl` [Chlorantraniliprole], the “Efficacy in % after 6d” value ([3]; 0.16 g ai/ha) was 0%.
With `Cc1cc(C(F)(C(F)(F)F)C(F)(F)F)ccc1NC(=O)c1cccc(Cl)c1C(=O)NC(C)(C)C#N` [Compound of formula (II-6)] the “Efficacy in % after 2d” value ([4]; 0.1 ppm) was 20%, the “Efficacy in % after 2d” value ([4]; 0.2 ppm) was 50% and the “Efficacy in % after 1d” value ([4]; 0.4 ppm, 1 d) was 30%. For the same compound, the “Efficacy in % after 2d” value ([4]; 0.4 ppm) was 60%.
In the case of `CNC(=O)c1cc(C#N)cc(C)c1NC(=O)c1cc(Br)nn1-c1ncccc1Cl` [Cyantraniliprole], the “Efficacy in % after 6d” value ([4]; 0.15 ppm, 6 d) was 50%.
